From ChEMBL document CHEMBL1155514, “Analysis of kinase inhibitor selectivity using a thermodynamics-based partition index” (J Med Chem, 2010) come the findings set out here.

Each structure is given as a SMILES string.

The target in assay [1] is T1, Angiopoietin-1 receptor (Homo sapiens, UniProt Q02763). Briefly: Inhibition of Tie2 at 1 uM relative to control; values are per cent of control.
A short description of assay [2]: Selectivity ratio of IC50 for KDR to IC50 for Tie2.
Assay [3] concerns the target T2, Vascular endothelial growth factor receptor 2 (Homo sapiens, UniProt P35968). The assay is described as follows: Inhibition of KDR.
The next assay addresses T3, Aurora kinase A (Homo sapiens, UniProt O14965).
T3 sequence (O14965 whole entry): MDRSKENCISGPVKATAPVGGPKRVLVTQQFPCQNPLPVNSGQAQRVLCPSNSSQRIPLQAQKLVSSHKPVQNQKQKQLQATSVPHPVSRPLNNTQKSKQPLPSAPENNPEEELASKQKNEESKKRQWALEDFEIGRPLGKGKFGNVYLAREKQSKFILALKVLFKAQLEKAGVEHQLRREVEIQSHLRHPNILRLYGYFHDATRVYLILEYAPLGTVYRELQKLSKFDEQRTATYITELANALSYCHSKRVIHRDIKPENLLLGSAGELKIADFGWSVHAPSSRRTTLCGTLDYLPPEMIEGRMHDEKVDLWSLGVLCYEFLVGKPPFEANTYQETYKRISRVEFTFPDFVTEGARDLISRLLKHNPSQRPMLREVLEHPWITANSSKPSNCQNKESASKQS
The assay is described as follows: Inhibition of Aurora A.

Assay [4] addresses T2, Vascular endothelial growth factor receptor 2. The assay is described as follows: Inhibition of KDR at 1 uM relative to control; values are per cent of control.
Assay [5] addresses T4, Aurora kinase B (Homo sapiens, UniProt Q96GD4). Briefly: Inhibition of Aurora B at 1 uM relative to control; values are per cent of control.
A short description of assay [6]: Selectivity ratio of IC50 for Aurora A to IC50 for Tie2.
The target of assay [7] is T1, Angiopoietin-1 receptor. The assay is described as follows: Inhibition of Tie2.
The target of assay [8] is Tyrosine-protein kinase Lck (Homo sapiens, UniProt P06239). The assay is described as follows: Inhibition of LCK.
Tyrosine-protein kinase Lck, sequence (P06239 whole entry): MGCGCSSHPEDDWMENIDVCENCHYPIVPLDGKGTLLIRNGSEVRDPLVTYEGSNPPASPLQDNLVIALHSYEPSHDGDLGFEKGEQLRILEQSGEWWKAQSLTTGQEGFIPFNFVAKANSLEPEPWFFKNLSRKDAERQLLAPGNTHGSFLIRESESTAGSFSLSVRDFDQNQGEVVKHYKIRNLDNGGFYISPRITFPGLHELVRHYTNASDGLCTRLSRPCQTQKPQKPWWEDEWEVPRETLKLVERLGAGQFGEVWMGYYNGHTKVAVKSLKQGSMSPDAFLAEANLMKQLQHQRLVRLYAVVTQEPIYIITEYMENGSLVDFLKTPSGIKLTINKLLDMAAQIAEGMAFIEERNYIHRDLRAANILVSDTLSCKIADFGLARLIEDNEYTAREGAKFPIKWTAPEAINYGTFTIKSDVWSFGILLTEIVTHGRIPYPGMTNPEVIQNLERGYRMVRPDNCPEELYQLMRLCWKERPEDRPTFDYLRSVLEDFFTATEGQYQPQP
The target in assay [9] is T4, Aurora kinase B. Briefly: Inhibition of Aurora B.
Assay [10] is described as follows: Selectivity ratio of IC50 for LCK to IC50 for Tie2.
The nature of assay [11]: Selectivity ratio of IC50 for Aurora B to IC50 for Tie2.
Assay [12] addresses T5, Aurora kinase A (Homo sapiens) (UniProt O14965).
T5 sequence (whole entry): T3 sequence (O14965 whole entry)
Briefly: Inhibition of Aurora A at 1 uM relative to control; values are per cent of control.

T4 sequence (Q96GD4 whole entry): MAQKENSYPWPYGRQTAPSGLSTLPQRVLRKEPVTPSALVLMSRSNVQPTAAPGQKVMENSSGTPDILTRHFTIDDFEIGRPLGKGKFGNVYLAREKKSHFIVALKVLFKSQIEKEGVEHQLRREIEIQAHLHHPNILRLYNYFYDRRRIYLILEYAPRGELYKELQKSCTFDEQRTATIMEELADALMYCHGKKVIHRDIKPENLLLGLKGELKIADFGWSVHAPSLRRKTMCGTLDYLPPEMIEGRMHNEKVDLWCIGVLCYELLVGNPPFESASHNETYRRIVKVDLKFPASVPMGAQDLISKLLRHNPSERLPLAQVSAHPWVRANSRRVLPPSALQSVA
T1 sequence (Q02763 whole entry): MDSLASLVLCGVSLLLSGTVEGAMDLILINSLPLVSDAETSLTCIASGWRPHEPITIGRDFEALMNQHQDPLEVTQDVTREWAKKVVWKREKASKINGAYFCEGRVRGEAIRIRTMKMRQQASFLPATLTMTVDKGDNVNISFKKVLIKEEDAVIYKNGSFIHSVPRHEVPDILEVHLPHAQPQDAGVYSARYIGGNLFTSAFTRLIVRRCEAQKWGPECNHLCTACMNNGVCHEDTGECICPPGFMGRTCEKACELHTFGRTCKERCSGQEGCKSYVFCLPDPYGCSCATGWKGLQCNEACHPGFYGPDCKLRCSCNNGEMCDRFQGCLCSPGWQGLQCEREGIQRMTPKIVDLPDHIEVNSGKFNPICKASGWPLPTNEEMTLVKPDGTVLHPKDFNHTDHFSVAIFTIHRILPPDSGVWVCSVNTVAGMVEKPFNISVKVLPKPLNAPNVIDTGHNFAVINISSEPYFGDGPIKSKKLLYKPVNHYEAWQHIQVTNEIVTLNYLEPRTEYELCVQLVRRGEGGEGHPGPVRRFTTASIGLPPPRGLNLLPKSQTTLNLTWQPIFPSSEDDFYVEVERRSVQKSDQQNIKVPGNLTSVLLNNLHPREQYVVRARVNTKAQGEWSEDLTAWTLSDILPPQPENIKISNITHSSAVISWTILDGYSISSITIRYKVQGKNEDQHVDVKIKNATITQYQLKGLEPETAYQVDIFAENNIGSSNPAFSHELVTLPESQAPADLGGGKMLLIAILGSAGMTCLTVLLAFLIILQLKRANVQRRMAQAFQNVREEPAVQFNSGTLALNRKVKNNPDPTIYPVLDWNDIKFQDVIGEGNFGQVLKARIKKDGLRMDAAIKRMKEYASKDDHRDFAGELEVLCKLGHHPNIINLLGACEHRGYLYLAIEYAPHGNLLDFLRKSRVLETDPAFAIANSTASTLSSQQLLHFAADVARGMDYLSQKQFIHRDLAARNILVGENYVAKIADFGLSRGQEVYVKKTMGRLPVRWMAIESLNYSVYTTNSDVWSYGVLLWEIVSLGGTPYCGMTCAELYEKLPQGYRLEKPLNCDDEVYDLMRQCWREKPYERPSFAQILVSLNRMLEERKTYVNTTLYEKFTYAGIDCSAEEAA
T2 sequence (P35968 whole entry): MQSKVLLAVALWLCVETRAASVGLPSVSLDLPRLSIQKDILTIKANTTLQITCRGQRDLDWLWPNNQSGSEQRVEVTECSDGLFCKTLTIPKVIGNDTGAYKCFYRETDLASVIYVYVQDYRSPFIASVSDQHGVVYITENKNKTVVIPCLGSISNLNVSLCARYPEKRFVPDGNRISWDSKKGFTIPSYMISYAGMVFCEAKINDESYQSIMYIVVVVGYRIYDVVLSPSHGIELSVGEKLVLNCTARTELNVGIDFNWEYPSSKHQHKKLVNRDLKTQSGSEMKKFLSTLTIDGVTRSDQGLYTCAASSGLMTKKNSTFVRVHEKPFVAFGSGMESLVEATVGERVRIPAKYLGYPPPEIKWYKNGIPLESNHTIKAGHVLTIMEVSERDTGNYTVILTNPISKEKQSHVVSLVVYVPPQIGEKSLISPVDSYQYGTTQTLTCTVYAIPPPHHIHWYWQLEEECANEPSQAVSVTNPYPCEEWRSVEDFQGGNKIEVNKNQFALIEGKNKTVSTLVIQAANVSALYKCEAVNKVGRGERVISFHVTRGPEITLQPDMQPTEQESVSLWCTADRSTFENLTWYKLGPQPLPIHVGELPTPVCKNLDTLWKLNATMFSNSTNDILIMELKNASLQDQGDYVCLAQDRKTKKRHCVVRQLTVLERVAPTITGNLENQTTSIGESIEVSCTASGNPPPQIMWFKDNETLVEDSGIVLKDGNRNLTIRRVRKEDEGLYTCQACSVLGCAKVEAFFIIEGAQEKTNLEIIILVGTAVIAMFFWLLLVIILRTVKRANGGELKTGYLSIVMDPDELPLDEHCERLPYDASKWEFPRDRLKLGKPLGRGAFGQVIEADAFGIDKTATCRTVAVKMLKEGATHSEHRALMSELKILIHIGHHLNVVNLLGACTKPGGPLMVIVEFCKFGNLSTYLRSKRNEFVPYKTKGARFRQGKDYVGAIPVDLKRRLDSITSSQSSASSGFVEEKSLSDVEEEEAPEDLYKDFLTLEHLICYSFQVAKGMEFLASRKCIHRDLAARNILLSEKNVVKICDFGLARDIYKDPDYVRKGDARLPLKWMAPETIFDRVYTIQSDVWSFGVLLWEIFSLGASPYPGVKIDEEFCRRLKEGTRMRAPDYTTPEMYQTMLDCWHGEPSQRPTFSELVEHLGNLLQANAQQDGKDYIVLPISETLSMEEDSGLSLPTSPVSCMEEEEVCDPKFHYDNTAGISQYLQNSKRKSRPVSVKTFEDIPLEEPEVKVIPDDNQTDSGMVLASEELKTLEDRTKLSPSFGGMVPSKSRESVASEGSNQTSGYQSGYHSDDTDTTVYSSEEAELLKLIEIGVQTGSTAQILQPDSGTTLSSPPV

What is called residual activity is the share of the control activity or signal that is left under treatment. A higher residual activity goes with much activity left. As usually defined, the IC50 is the concentration needed to halve the response being measured. Lower therefore signals higher potency. As to `CN(C)CC(C)(C)CNc1nccc(-c2cccnc2Oc2ccc(Nc3nc4ccccc4[nH]3)c3ccccc23)n1`, the residual activity at Angiopoietin-1 receptor [1] is 8%; in assay [4] it was 91%; on Aurora kinase B [5], 43%; in assay [12], 62%. Moreover, the Ratio IC50 stood at 123 in [2], 20 in [6], 123 in assay [10] and 9 in assay [11]. The IC50 in assay [3] came to 10000 nM; at Aurora kinase A, 1660 nM; at Angiopoietin-1 receptor [7], 82 nM; in assay [8] it was 10000 nM; against Aurora kinase B [9] it was 759 nM.

In the case of `CNc1nccc(-c2cccnc2Oc2ccc(Nc3nc4ccccc4o3)c3ccccc23)n1`, the residual activity was 2% at Angiopoietin-1 receptor [1], 3% in assay [4], 12% on Aurora kinase B [5] and 12% in assay [12]. The Ratio IC50 came to 2 in assay [2], 9 in [6], 2 in assay [10] and 3 in [11]. Also, the IC50 against Aurora kinase A is 141 nM; in assay [8], 25 nM; against Aurora kinase B [9] it was 134 nM.

Consider `CNc1nccc(-c2cccnc2Oc2ccc(NC(=O)Nc3ccccc3)c3ccccc23)n1`, for which the residual activity at Angiopoietin-1 receptor [1] turned out to be 1%; in assay [4], 4%; on Aurora kinase B [5], 2%; in assay [12] it was 5%. Besides, the Ratio IC50 was 7 in [2], 10 in assay [6], 9 in assay [10] and 4 in assay [11]. Besides, the figures for the IC50 (against Aurora kinase A; in [8]; against Aurora kinase B [9]) were 52 nM, 48 nM and 23 nM, respectively.

`CNc1nccc(-c2cccnc2Oc2ccc(Nc3nc4ccccc4s3)c3ccccc23)n1`: the residual activity is 4% at Angiopoietin-1 receptor [1], 8% in assay [4], 13% on Aurora kinase B [5] and 28% in [12]. The Ratio IC50 is 2 in assay [2], 9 in assay [6], 2 in [10] and 3 in assay [11]. The results for the IC50 (against Aurora kinase A; in assay [8]; against Aurora kinase B [9]) were 380 nM, 80 nM and 143 nM, respectively.

Take `CCN1CCC(CNc2nccc(-c3cccnc3Oc3ccc(Nc4nc5ccccc5[nH]4)c4ccccc34)n2)CC1`: the residual activity on Angiopoietin-1 receptor [1] worked out at 0%; in assay [4], 64%; on Aurora kinase B [5], 9%; in assay [12], 25%. Moreover, the Ratio IC50 in [2] was found to be 1750; in assay [6], 332; in assay [10] it was 387; in assay [11], 100. For the same compound, the IC50 in assay [3] was 1750 nM; against Aurora kinase A, 332 nM; on Angiopoietin-1 receptor [7], 1 nM; in assay [8], 387 nM; against Aurora kinase B [9], 100 nM.

Regarding `CN1CCCC1CCNc1nccc(-c2cccnc2Oc2ccc(Nc3nc4ccccc4[nH]3)c3ccccc23)n1` (stereo unspecified), the residual activity at Angiopoietin-1 receptor [1] is 0%; in assay [4] it was 67%; at Aurora kinase B [5] it was 4%; in assay [12], 25%. Moreover, the IC50 was 2060 nM in assay [3]; 327 nM against Aurora kinase A; 2 nM at Angiopoietin-1 receptor [7]; 269 nM in assay [8]; 47 nM against Aurora kinase B [9]. For the same compound, the results for the Ratio IC50 in assay [6], in [10] and in assay [11] were 146, 120 and 21, respectively.

In the case of `CNc1nccc(-c2cccnc2Oc2ccc(NC(=O)NC(C)(C)C)c3ccccc23)n1`, the residual activity on Angiopoietin-1 receptor [1] stood at 18%; in assay [4], 69%; at Aurora kinase B [5], 5%; in assay [12], 18%. For the same compound, the Ratio IC50 in [2] stood at 10; in assay [6], 1; in assay [10], 19; in assay [11], 0.1. Further, the IC50 in assay [3] is 2220 nM; at Aurora kinase A, 225 nM; against Angiopoietin-1 receptor [7] it was 215 nM; in [8], 4090 nM; at Aurora kinase B [9], 55 nM.

For `CNc1nccc(-c2cccnc2Oc2c(C)cc(Nc3nc4ccccc4[nH]3)c3ccccc23)n1`, the residual activity at Angiopoietin-1 receptor [1] came to 0%; in assay [4], 91%; on Aurora kinase B [5], 7%; in assay [12], 3%. The IC50 in assay [3] was 10000 nM; against Aurora kinase A it was 29 nM; in assay [8] it was 405 nM; against Aurora kinase B [9], 77 nM.

Consider `CNc1nccc(-c2cccnc2Oc2ccc(Nc3nc4cc(C(F)(F)F)ccc4[nH]3)c3ccccc23)n1`, for which the IC50 against Aurora kinase A is 16 nM; in assay [8], 132 nM; against Aurora kinase B [9], 56 nM.

In the case of `CNc1nccc(-c2cccnc2Oc2ccc(Nc3nc4ccc(C(F)(F)F)cc4[nH]3)c3ccccc23)n1`, the residual activity was 3% on Angiopoietin-1 receptor [1], 6% in assay [4], 5% at Aurora kinase B [5] and 2% in [12]. For the same compound, the Ratio IC50 stood at 3 in assay [2], 1 in assay [6], 5 in [10] and 2 in assay [11].

As for `CNc1nccc(-c2cccnc2Oc2ccc(Nc3nc4ccncc4[nH]3)c3ccccc23)n1`, the residual activity at Angiopoietin-1 receptor [1] amounted to 8%; in assay [4], 86%; on Aurora kinase B [5] it was 31%; in [12], 52%. Moreover, the Ratio IC50 in [2] is 74; in assay [6], 12; in [10], 56; in assay [11], 5. The IC50 in [3] is 6360 nM; against Aurora kinase A, 1070 nM; at Angiopoietin-1 receptor [7], 86 nM; in [8], 4800 nM; against Aurora kinase B [9], 454 nM.

For `CNc1nccc(-c2cccnc2Oc2ccc(Nc3nc4ccccc4[nH]3)c3ccccc23)n1`, the residual activity at Angiopoietin-1 receptor [1] amounted to 0%; in assay [4] it was 58%; on Aurora kinase B [5], 1%; in [12], 2%. Besides, the Ratio IC50 stood at 998 in assay [2], 14 in assay [6], 211 in assay [10] and 7 in [11]. For the same compound, the results for the IC50 (in [8]; at Aurora kinase B [9]) were 292 nM and 9 nM, respectively.
